According to patent publication US20050164196A1, “Methods to predict patient responsiveness to tyrosine kinase inhibitors” (priority 2002, published 2005):
“And” between values parts separate entries of the source, which are not always exact repeats. Identical values can stand only once. Counter-ions that a name gives are not always drawn. Like-named read-outs stand apart in the source and are kept apart here.

How the values were obtained:
CML = conditions: cited from earlier work
[1] = rs2290573 CC genotype, n = 26, 18-month data, ITT principle
[2] = rs2290573 CT, TT genotype, n = 79, 18-month data, ITT principle
[3] = of 54 CML patients treated with 300 mg or more

Cc1ccc(NC(=O)c2ccc(CN3CCN(C)CC3)cc2)cc1Nc1nccc(-c2cccnc2)n1 [Imatinib, Imatinib mesylate]
events of progression (Ph+ CML; genotyped patients of the Imatinib arm, 18-month data, ITT principle): 10 events
TTP (months) (Ph+ CML; individual patients with disease progression among the 105 analyzed patients, 18-month data, one line per patient, listed as STI571): 16.1 months and 16.3 months and 11.8 months and 17.0 months and 13.4 months and 16.4 months and 9.7 months and 15.8 months and 5.6 months and 6.8 months
individuals who exhibited disease progression (Ph+ CML; out of the entire 553 treated patients, 12-month data): 24 individuals
patients who experienced progression events (Ph+ CML; rs2290573 CC genotype, 26 patients, 18-month data): 23.1%
Death (as primary reason for discontinuation) (Ph+ CML; [1]): 0 (0) n (%)
Increase in WBC (approved by SMC) (Ph+ CML; [1]): 1 (3.8) n (%)
Loss of CHR (Ph+ CML; [1]): 1 (3.8) n (%)
Loss of MCyR (Ph+ CML; [1]): 4 (15.4) n (%)
Progression to AP or BC (Ph+ CML; [1]): 0 (0) n (%)
Total number of patients with events (progression) (Ph+ CML; [1]): 6 (23.1) n (%)
patients who experienced progression events (Ph+ CML; rs2290573 CT or TT genotype, 79 patients, 18-month data): 5.1%
Death (as primary reason for discontinuation) (Ph+ CML; [2]): 0 (0) n (%)
Increase in WBC (approved by SMC) (Ph+ CML; [2]): 0 (0) n (%)
Loss of CHR (Ph+ CML; [2]): 2 (2.5) n (%)
Loss of MCyR (Ph+ CML; [2]): 0 (0) n (%)
Progression to AP or BC (Ph+ CML; [2]): 2 (2.5) n (%)
Total number of patients with events (progression) (Ph+ CML; [2]): 4 (5.1) n (%)
major responses (0-35% of cells in metaphase positive for the Ph′ chromosome) (CML; % of the 54 patients who received 300 mg or more): 31%
complete cytogenetic remission (CCR) (CML; [3]): 7 patients
complete hematologic responses (CHR) (CML; [3]): 53 patients
cytogenic responses (CML; [3]): 29 patients
major responses (0-35% of cells in metaphase positive for the Ph′ chromosome) (CML; [3]): 17 patients
